The record followed here is patent publication US4746667A, “Pharmaceutical composition containing 2-(2-benzimidazolyl thiomethyl) pyridine” (priority 1981, dated 1988).

Broadly, the inhibition in vivo is the share of the control response that was lost under treatment.

The first test relates to gastric acid secretion. The test can be described thus: Gastric Acid Secretion Inhibiting Effect on Conscious Dogs. It is filed as in vivo. Conditions: Canis lupus familiaris; dose 2 μmol/kg, oral (stomach tube), free base suspended in 0.5% Methocel; histamine-stimulated conscious Heidenhain pouch dogs; gastric juice collected 3 hours. The procedure:
Gastric Acid Secretion Inhibiting Effect on Conscious Dogs
Chronic gastric fistula dogs (Heidenhain pouch dogs) were used. These dogs have been surgically provided with a gastric cannula in the pouch. Following a 4 weeks' recovery period after surgery, tests were performed once a week on each dog. Food and water were withdrawn 18 hours before each test.
Gastric acid secretion was induced by continuous infusion of histamine at individual doses (100-300 μmol/kg, h), resulting in submaximal secretion of gastric acid. At least 2 hours after onset of stimulation, when the gastric acid secertion had reached a steady level, the test compounds in the form of free base suspended in 0.5% Methocel® (90 HG, 15.000, Dow Chem. corp.), were given orally by stomach tube. The gastric juice was collected by free flow from the gastric cannula in consecutive 30 minutes samples for 3 hours. The samples were titrated to pH 7.0 with 0.1M NaOH using a Radio-meter automatic titrator and the acid output was calculated.
The percent inhibition of acid secretion was calculated by comparing in each dog the acid output in the tests to the acid output in control tests when only the vehicle was given.
On to `COc1c(C)cnc(CSc2nc3cc(C)ccc3[nH]2)c1C` [5-CH3, H, H, CH3, OCH3, CH3], for which the inhibition in vivo at 2 µmol/kg was 60%.

As for `COc1c(C)cnc(CSc2nc3cc(C(C)=O)c(C)cc3[nH]2)c1C` [5-COCH3,6-CH3, H, CH3, OCH3, CH3, 2-[2-(3,5-dimethyl-4-methoxy)pyridylmethylthio]-5-COCH3-6-CH3-benzimidazole], the inhibition in vivo at 2 µmol/kg amounted to 35%.

Turning to `COC(=O)c1cc2nc(SCc3ncc(C)c(OC)c3C)[nH]c2cc1C` [5-COOCH3,6-CH3, H, CH3, OCH3, CH3, 2-[2-(3,5-dimethyl-4-methoxy)pyridylmethylthio]-(5-carbomethoxy-6-methyl)benzimidazole], the inhibition in vivo at 2 µmol/kg is 80%.

For the compound `COc1ccc2[nH]c(SCc3ncc(C)c(C)c3C)nc2c1` [5-OCH3, H, H, CH3, CH3, CH3], the inhibition in vivo at 2 µmol/kg was determined as 75%.

The compound `COc1ccc2[nH]c(SCc3ncc(C)c(OC)c3C)nc2c1` [5-OCH3, H, H, CH3, OCH3, CH3, 2-[2-(3,5-dimethyl-4-methoxy)pyridylmethylthio]-(5-methoxy)benzimidazole] displayed an inhibition in vivo at 2 µmol/kg of 75%.

Staying with this test, now noted: Canis lupus familiaris; dose 8 μmol/kg, oral (stomach tube), free base suspended in 0.5% Methocel; histamine-stimulated conscious Heidenhain pouch dogs; gastric juice collected 3 hours.
As to `CC(=O)c1cc2nc(SCc3cc(C)c(C)cn3)[nH]c2cc1C` [5-COCH3,6-CH3, H, H, CH3, CH3], the inhibition in vivo at 8 µmol/kg is 80%.

`COc1c(C)cnc(CSc2nc3cc(C(C)=O)ccc3[nH]2)c1C` [5-COCH3, H, H, CH3, OCH3, CH3] showed an inhibition in vivo at 8 µmol/kg of 90%.

The compound `COC(=O)c1ccc2[nH]c(SCc3ncc(C)c(OC)c3C)nc2c1` [5-COOCH3, H, H, CH3, OCH3, CH3] displayed an inhibition in vivo at 8 µmol/kg of 50%.
